Laboratory results taken from patent US20120258967A1, “PI3 KINASE INHIBITORS AND USES THEREOF” (AVILA THERAPEUTICS, INC., priority 2011, published 2012).
pIC50: −log10 of the molar value.

Experiments:
[1] = target: T1, PI3Kα (p110α/p85α) (Homo sapiens, UniProt P42336); assay: HTRF assay, potency against active PI3Kα; assay type: biochemical; conditions: [ATP]=50 μM, read-out: PI3Kα Inhibition
T1 construct: purchased BPS Bioscience or Millipore
Procedure: Compounds of the present invention are assayed as inhibitors of PI3 kinases using the following general protocol.
Homogeneous Time Resolved Fluorescence (HTRF) Assay Protocol for Potency Assessment Against the Active Forms of PI3Kα, PI3Kβ, and PI3Kγ
The protocol below describes an end-point, competition-binding HTRF assay used to measure inherent potency of test compounds against active PI3Kα (p110α/p85α), PI3Kβ (p110β/p85α), and PI3Kγ (p120γ) enzymes. The mechanics of the assay platform are best described by the vendor (Millipore, Billerica, Mass.) on their website at the following URL: www.millipore.com/coa/tech1/74jt4z.
Briefly, Stop solution (Stop A, #33-007 and Stop B, #33-009; 3:1 ratio) and Detection Mix (from DMC, #33-015 with DMA, #33-011 and DMB, #33-013; 18:1:1 ratio) were prepared as recommended by the manufacturer about 2 hrs prior to use. Additionally, 1× reaction buffer (from 4× buffer stock #33-003), 1.4× stocks of PI3Kα, PI3Kβ, and PI3Kγ enzymes from BPS Bioscience (San Diego, Calif.) or Millipore (Billerica, Mass.) with di-C8-PIP2 lipid substrate (#33-005), and a 4×ATP solution (#A7699 Sigma/Aldrich; St. Louis, Mo.) were prepared in 1× reaction buffer. 15 μL of PI3K enzymes and lipid substrate mix were pre-incubated in a Corning (#3573) 384-well, black, non-treated microtiter plate (Corning, N.Y.) for 30 min at 25° C. with a 0.5 μL volume of 50% DMSO and serially diluted compounds prepared in 50% DMSO. Lipid kinase reactions were started with the addition of 5 μL of ATP solution, mixed for 15 sec on a rotary plate shaker and incubated for 30-60 minutes at 25° C. Next, reactions were stopped with a 5 μL addition of Stop solution immediately followed by a 5 μL volume of Detection Mix. Stopped reactions were equilibrated for 1 and 18 hrs at room temperature and read in a Synergy^4 plate reader from BioTek (Winooski, Vt.) at λex 330-80/λem 620-35 and λem 665-7.5. At the conclusion of each assay, the HTRF ratio from fluorescence emission values for each well was calculated and % Inhibition determined from averaged controls wells (+/−PI3K enzyme). % Inhibition values for each compound were then plotted against inhibitor concentration to estimate IC50 from log [Inhibitor]vs Response, Variable Slope model in GraphPad Prism from GraphPad Software (San Diego, Calif.).
[Reagent] used in optimized protocol:
(ATP KMapp for both enzymes was estimated to be 40-70 μM)

[2] = target: T2, PI3Kα (Homo sapiens, UniProt P42336); assay: Mass spectrometry for PI3K (covalent modification of intact protein, MALDI); assay type: binding
T2 construct: purchased Millipore 14-602
Procedure: Mass Spectrometry for PI3K
Intact PI3Kα (Millipore, 14-602) was incubated for 1 hr at a 10-fold excess of I-11 to protein. Aliquots (5 μl) of the samples were diluted with 15 μl of 0.2% TFA prior to micro C4 ZipTipping directly onto the MALDI target using Sinapinic acid as the desorption matrix (10 mg/mL in 0.1% TFA:Acetonitrile 50:50). […] Other compounds that modify PI3Kα >50% after 1 hr include I-1, I-2, I-12, I-17, and I-19.

T2 sequence (P42336 whole entry): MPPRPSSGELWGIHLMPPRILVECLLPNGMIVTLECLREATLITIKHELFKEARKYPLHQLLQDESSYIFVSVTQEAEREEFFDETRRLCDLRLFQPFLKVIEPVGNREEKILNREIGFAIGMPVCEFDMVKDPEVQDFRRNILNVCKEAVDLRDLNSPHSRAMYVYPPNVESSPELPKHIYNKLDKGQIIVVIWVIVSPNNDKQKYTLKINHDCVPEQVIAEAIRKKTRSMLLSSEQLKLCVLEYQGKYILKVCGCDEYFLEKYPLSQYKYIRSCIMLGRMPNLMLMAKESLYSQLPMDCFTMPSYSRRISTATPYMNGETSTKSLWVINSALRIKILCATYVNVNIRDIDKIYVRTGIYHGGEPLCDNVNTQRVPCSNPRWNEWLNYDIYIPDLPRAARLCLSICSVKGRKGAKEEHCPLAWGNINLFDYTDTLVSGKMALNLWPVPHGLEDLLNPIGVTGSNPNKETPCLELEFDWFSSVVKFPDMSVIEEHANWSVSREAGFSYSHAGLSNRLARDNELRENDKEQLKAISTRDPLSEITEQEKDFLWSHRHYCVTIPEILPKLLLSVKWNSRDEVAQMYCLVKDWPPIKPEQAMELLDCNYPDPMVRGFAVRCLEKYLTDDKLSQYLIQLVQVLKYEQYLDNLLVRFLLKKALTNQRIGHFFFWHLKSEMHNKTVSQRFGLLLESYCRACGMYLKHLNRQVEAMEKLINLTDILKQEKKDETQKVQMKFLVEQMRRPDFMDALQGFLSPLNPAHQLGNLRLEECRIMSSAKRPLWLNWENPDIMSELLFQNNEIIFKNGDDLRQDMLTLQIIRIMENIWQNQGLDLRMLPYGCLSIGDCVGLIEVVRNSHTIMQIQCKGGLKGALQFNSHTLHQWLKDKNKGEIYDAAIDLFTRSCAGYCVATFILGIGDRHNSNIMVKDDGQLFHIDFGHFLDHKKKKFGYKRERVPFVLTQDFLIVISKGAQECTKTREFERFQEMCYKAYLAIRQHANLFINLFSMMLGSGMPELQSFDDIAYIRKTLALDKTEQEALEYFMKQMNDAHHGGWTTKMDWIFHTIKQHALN
T2 sequence (P27986 whole entry partner): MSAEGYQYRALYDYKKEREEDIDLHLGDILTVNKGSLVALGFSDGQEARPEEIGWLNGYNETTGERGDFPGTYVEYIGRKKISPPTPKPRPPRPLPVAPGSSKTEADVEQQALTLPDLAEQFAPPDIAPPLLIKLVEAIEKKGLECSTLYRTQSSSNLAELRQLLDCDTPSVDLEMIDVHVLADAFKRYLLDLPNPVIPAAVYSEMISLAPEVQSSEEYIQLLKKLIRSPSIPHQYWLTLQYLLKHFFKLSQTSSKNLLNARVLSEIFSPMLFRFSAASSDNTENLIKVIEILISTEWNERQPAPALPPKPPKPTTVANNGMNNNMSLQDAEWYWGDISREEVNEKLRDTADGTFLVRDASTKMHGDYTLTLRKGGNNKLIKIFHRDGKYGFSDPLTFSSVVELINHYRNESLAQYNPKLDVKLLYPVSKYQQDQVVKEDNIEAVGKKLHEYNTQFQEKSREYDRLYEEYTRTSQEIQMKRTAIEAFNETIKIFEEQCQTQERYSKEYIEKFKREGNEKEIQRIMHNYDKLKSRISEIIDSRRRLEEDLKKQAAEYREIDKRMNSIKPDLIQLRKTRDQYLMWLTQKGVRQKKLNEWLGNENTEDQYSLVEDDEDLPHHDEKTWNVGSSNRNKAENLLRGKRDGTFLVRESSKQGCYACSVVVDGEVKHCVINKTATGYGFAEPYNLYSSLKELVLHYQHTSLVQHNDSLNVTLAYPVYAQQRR
T1 sequence (P42336 whole entry): as the sequence (P42336 whole entry) above
T1 sequence (P27986 whole entry partner): as the sequence (P27986 whole entry partner) above

Row | Structure (SMILES) | pIC50 [1] | other results
1 | CC(C)=CC(=O)CCC(=O)N1CCN(c2ccc(-c3cc(-c4cnc(N)nc4)nc(N4CCOCC4)c3)cc2)CC1 [I-1, 1-(4-(4-(2-(2-aminopyrimidin-5-yl)-6-morpholinopyridin-4-yl)phenyl)piperazin-1-yl)-6-methylhept-5-ene-1,4-dione] | 6.00 to 7.00 | 
2 | CC(C)=CC(=O)CCC(=O)Nc1ccc(C#Cc2cc(-c3cnc(N)nc3)nc(N3CCOCC3)c2)cc1 [I-2, N-(4-((2-(2-aminopyrimidin-5-yl)-6-morpholinopyridin-4-yl)ethynyl)phenyl)-6-methyl-4-oxohept-5-enamide] | 7.00 to 8.00 | 
3 | C/C=C/C(=O)Nc1ccc(CC(=O)N2CC=C(c3cc(-c4cnc(N)nc4)nc(N4CCOCC4)c3)CC2)cc1 [I-3] | 6.00 to 7.00 | 
4 | Nc1ncc(-c2cc(C3=CCN(C(=O)Cc4ccc(NC(=O)/C=C(\C5CC5)C(F)(F)F)cc4)CC3)cc(N3CCOCC3)n2)cn1 [I-4] | 7.00 to 8.00 | 
5 | Nc1ncc(-c2cc(C3=CCN(C(=O)Cc4ccc(NC(=O)/C=C(\c5ccccc5)C(F)(F)F)cc4)CC3)cc(N3CCOCC3)n2)cn1 [I-5] | 7.00 to 8.00 | 
6 | C/C(=C\C(=O)Nc1ccc(CC(=O)N2CC=C(c3cc(-c4cnc(N)nc4)nc(N4CCOCC4)c3)CC2)cc1)C(F)(F)F [I-6] | 6.00 to 7.00 | 
7 | C/C(=C/C(=O)Nc1ccc(CC(=O)N2CC=C(c3cc(-c4cnc(N)nc4)nc(N4CCOCC4)c3)CC2)cc1)C(F)(F)F [I-7] | 6.00 to 7.00 | 

Continued, in another order:

Row | pIC50 [1] | Structure (SMILES) | other results
8 | 6.00 to 7.00 | CC(C)/C(=C\C(=O)Nc1ccc(CC(=O)N2CC=C(c3cc(-c4cnc(N)nc4)nc(N4CCOCC4)c3)CC2)cc1)C(F)(F)F [I-8] | 
9 | 7.00 to 8.00 | CC(C)/C(=C/C(=O)Nc1ccc(CC(=O)N2CC=C(c3cc(-c4cnc(N)nc4)nc(N4CCOCC4)c3)CC2)cc1)C(F)(F)F [I-9] | 
10 | 6.00 to 7.00 | C/C=C/C(=O)Nc1ccc(CC(=O)N2CCN(c3cc(-c4cnc(N)nc4)nc(N4CCOCC4)c3)CC2)cc1 [I-10] | 
11 | 7.00 to 8.00 | Nc1ncc(-c2cc(N3CCN(C(=O)Cc4ccc(NC(=O)/C=C(\C5CC5)C(F)(F)F)cc4)CC3)cc(N3CCOCC3)n2)cn1 [I-11] | covalent modification of PI3Kα by MS analysis (FIG. 1) [2]: confirming covalent modification; modification of PI3Kα ([2]; intact PI3Kα incubated 1 hr, 10-fold excess of compound to protein): 87%; mass shift of PI3K after incubation with compound ([2]; intact PI3Kα incubated 1 hr, 10-fold excess of compound, MALDI centroid mass): 555 Da
12 | 7.00 to 8.00 | Nc1ncc(-c2cc(N3CCN(C(=O)Cc4ccc(NC(=O)/C=C(\c5ccccc5)C(F)(F)F)cc4)CC3)cc(N3CCOCC3)n2)cn1 [I-12] | 
13 | 6.00 to 7.00 | C/C(=C\C(=O)Nc1ccc(CC(=O)N2CCN(c3cc(-c4cnc(N)nc4)nc(N4CCOCC4)c3)CC2)cc1)C(F)(F)F [I-13] | 
14 | 6.00 to 7.00 | C/C(=C/C(=O)Nc1ccc(CC(=O)N2CCN(c3cc(-c4cnc(N)nc4)nc(N4CCOCC4)c3)CC2)cc1)C(F)(F)F [I-14] | 
15 | 6.00 to 7.00 | CC(C)/C(=C\C(=O)Nc1ccc(CC(=O)N2CCN(c3cc(-c4cnc(N)nc4)nc(N4CCOCC4)c3)CC2)cc1)C(F)(F)F [I-15] | 
16 | 7.00 to 8.00 | CC(C)/C(=C/C(=O)Nc1ccc(CC(=O)N2CCN(c3cc(-c4cnc(N)nc4)nc(N4CCOCC4)c3)CC2)cc1)C(F)(F)F [I-16] | 
17 | 7.00 to 8.00 | C=CC(=O)Nc1ccc2sc(N3CCN(c4cc(-c5cnc(N)nc5)nc(N5CCOCC5)c4)CC3)nc2c1 [I-17] | 
